Source: patent EP0330017A2, “Use of thiazoles for increasing animal performance” (BOEHRINGER INGELHEIM VETMEDICA GMBH, priority 1988, dated 1989)

Tests used:
[1] = Performance promotion in pigs, 33-day feeding trial (weight gain, feed consumption, carcass quality); format: in vivo, Schweinen; conditions: 8 ppm test compound in feed, 33-day trial, 10 pigs
Description: (§1) Die leistungsfördernde Wirkung der vorstehend erwähnten Thiazole wurde beispielsweise an der Verbindung N-[2-(4-Carboxymethoxyphenyl)-1-methylethenyl]-2-(2-trifluormethyl-thiazol-4-yl)morpholin wie folgt geprüft:
3.) 2 Gruppen von 10 Schweinen, wobei jedes Tier einzeln gefüttert wurde, erhielten identisches Futter und Wasser ad libitum. Die eine Gruppe erhielt zusätzlich 8 ppm der vorstehend erwähnten Verbindung. Während der 33-tägigen Versuchsperiode wurden Gewichtszunahme, Futterverbrauch der Schlachtkörperqualität gegenüber der Kontrollgruppe bestimmt.

[2] = Performance promotion in lambs, 42-day feeding trial (weight gain, carcass quality); format: in vivo, Lämmern; conditions: 42-day trial
Description: as §1
2.) 2 Gruppen von 12 Lämmern erhielten identisches Futter und Wasser ad libitum. Die eine Gruppe erhielt zusätzlich 8 ppm der vorstehend erwähnten Verbindung. Während der 42-tä-gigen Versuchsperiode wurden Gewichtszunahme und Parameter der Schlachtkörperqualität gegenüber der Kontrolle bestimmt.

[3] = Performance promotion in lambs, 33-day feeding trial (weight gain, feed consumption); format: in vivo, Lämmern; conditions: 33-day trial
Description: as §1
1.) 2 Gruppen von 7 Lämmern, wobei jedes Tier einzeln gehalten wurde, erhielten identisches Futter und Wasser ad libitum. Die eine Gruppe erhielt zusätzlich 8 ppm der vorstehend erwähnten Verbindung. Während der 33-tägigen Versuchsperiode wurden Gewichtszunahme und Futterverbrauch gegenüber der Kontrollgruppe bestimmt.

[4] = 8 ppm test compound in feed, 12 lambs
[5] = 8 ppm test compound in feed, 7 lambs

SMILES: CC(Cc1ccc(OCC(=O)O)cc1)N1CCOC(c2csc(C(F)(F)F)n2)C1 (centres unmarked) [Testverbindung]
- Ausschlachtung [1]: 77,2%
- Endgewicht [1]: 97,6 kg
- Futterverwertung (kg Futter/kg Zunahme) [1]: 3,17 kg Futter/kg Zunahme
- Gewichte verschiedener Teilstücke: Rippe [1]: 7,25 kg
- Gewichte verschiedener Teilstücke: Schinken [1]: 7,46 kg
- Gewichte verschiedener Teilstücke: Schulter [1]: 9,48 kg
- Gewichtszunahme [1]: 754,0 g/Tag
- Rückenmuskelfläche [1]: 32,3 cm²
- Endgewicht [2, 4]: 46,6 kg
- Gewicht des musculus longissimus dorsi [2, 4]: 324,0 g
- Gewichtszunahme [2, 4]: 320,0 g/Tag
- Rückenfettdicke [2, 4]: 1,78 mm
- Schlachtkörperzusammensetzung: Fett [2, 4]: 16,1%
- Schlachtkörperzusammensetzung: Fleisch [2, 4]: 69,1%
- Schlachtkörperzusammensetzung: Knochen [2, 4]: 14,8%
- Gewicht des musculus longissimus dorsi, Abweichung zur Kontrolle ([2]; 8 ppm vs 0 ppm control, lambs): +6,9%
- Schlachtkörperzusammensetzung: Fett, Abweichung zur Kontrolle ([2]; 8 ppm vs 0 ppm control, lambs): -6,9%
- Schlachtkörperzusammensetzung: Fleisch, Abweichung zur Kontrolle ([2]; 8 ppm vs 0 ppm control, lambs): +1,2%
- Schlachtkörperzusammensetzung: Knochen, Abweichung zur Kontrolle ([2]; 8 ppm vs 0 ppm control, lambs): +2,8%
- Endgewicht [3, 5]: 43,9 kg
- Futteraufnahme [3, 5]: 1598,0 g/Tag
- Futterverwertung (kg Zunahme/kg Futter) [3, 5]: 0,161 kg Zunahme/kg Futter
- Gewichtszunahme [3, 5]: 258,0 g/Tag
- Futteraufnahme, Abweichung zur Kontrolle ([3]; 8 ppm vs 0 ppm control, lambs): +4,4%
- Futterverwertung (kg Zunahme/kg Futter), Abweichung zur Kontrolle ([3]; 8 ppm vs 0 ppm control, lambs): +50,5%
- Gewichtszunahme, Abweichung zur Kontrolle ([3]; 8 ppm vs 0 ppm control, lambs): +57,3%
